The values below come from US9376392B2, “2-(tert-butoxy)-2-(7-methylquinolin-6-yl) acetic acid derivatives for treating AIDS” (Gilead Sciences, Inc., priority 2012, dated 2016).

One assay relates to HIV-IIIb (MT-4 cells). In words: Test A: Antiviral Assays in MT4 Cells. Particulars: MT4, 120 h, MT-4 cells infected with HIV-IIIb, 5 days of incubation, CellTiter-Glo readout. Format: cell-based. As to the method:
The antiviral properties of a compound disclosed herein may be determined using Test A described below.
Test A: Antiviral Assays in MT4 Cells
For the antiviral assay utilizing MT-4 cells, 0.4 μL of […] test concentration of 3-fold serially diluted compound in DMSO was added to 40 μL of cell growth medium (RPMI 1640, 10% FBS, 1% penicillin/Streptomycin, 1% L-Glutamine, 1% HEPES) in each well of 384-well assay plates (10 concentrations) in quadruplicate.
1 mL aliquots of 2×10e6 MT-4 cells are pre-infected for 1 and 3 hrs respectively, @ 37° C. with 25 μL (MT4) or of either cell growth medium (mock-infected) or a fresh 1:250 dilution of an HIV-IIIb concentrated ABI stock (0.004 m.o.i. for MT4 cells). Infected and uninfected cells are diluted in cell growth medium and 35 μL of 2000 (for MT4) cells is added to each well of the assay plates.
Assay plates were then incubated in a 37° C. incubator. After 5 days of incubation, […] 2× concentrated CellTiter-Glo™ Reagent (catalog #G7573, Promega Biosciences, Inc., Madison, Wis.) was added to each well of the assay plate. Cell lysis was carried out by incubating at room temperature for 2-3 min and then chemiluminescence was read using the Envision reader (PerkinElmer).
(In general: In ATP-based viability assays light output follows the ATP content of the culture.)
For orientation: EC50 means the concentration that produces a half-maximal response. In turn, `Cc1cc2c(ccc(=O)n2Cc2cc(F)cc(C(F)(F)F)c2)c(-c2ccc3c4c(ccnc24)CCO3)c1[C@H](OC(C)(C)C)C(=O)O` (atropisomer, axis not shown) [Example 27, (S)-2-tert-Butoxy-2-((R)-5-(2,3-dihydropyrano[4,3,2-de]quinolin-7-yl)-1-(3-fluoro-5-(trifluoromethyl)benzyl)-7-methyl-2-oxo-1,2-dihydroquinolin-6-yl)acetic acid] gave an EC50 of 53.5 nM. Still for that read-out and setting: the same measure for `Cc1cccc(-n2c(=O)ccc3c(-c4ccc5c6c(ccnc46)CCO5)c([C@H](OC(C)(C)C)C(=O)O)c(C)cc32)c1` (atropisomer, axis not shown) [Example 35, (S)-2-tert-Butoxy-2-((R)-5-(2,3-dihydropyrano[4,3,2-de]quinolin-7-yl)-7-methyl-2-oxo-1-m-tolyl-1,2-dihydroquinolin-6-yl)acetic acid]: 1470 nM; for `Cc1cc2nc(OCc3ccc(OC(F)(F)F)cc3)ccc2c(-c2ccc3c4c(ccnc24)CCO3)c1[C@H](OC(C)(C)C)C(=O)O` (atropisomer, axis not shown) [Example 13, (S)-2-tert-Butoxy-2-((R)-5-(2,3-dihydropyrano[4,3,2-de]quinolin-7-yl)-7-methyl-2-(4-(trifluoromethoxy)benzyloxy)quinolin-6-yl)acetic acid]: 285 nM; for `Cc1cc2c(ccc(=O)n2-c2cccc(NS(C)(=O)=O)c2)c(-c2ccc3c4c(ccnc24)CCO3)c1[C@H](OC(C)(C)C)C(=O)O` (atropisomer, axis not shown) [Example 36, (S)-2-tert-Butoxy-2-((R)-5-(2,3-dihydropyrano[4,3,2-de]quinolin-7-yl)-7-methyl-1-(3-(methylsulfonamido)phenyl)-2-oxo-1,2-dihydroquinolin-6-yl)acetic acid]: 37400 nM.

Regarding `Cc1cc2c(ccc(=O)n2Cc2cccc(S(C)(=O)=O)c2)c(-c2ccc(Cl)cc2)c1[C@H](OC(C)(C)C)C(=O)O` [Example 6, (S)-2-tert-Butoxy-2-(5-(4-chlorophenyl)-7-methyl-1-(3-(methylsulfonyl)benzyl)-2-oxo-1,2-dihydroquinolin-6-yl)acetic acid], the EC50 was determined as 290 nM. The same measure, in the same setting: the same measure for `Cc1cc2nc(OCc3ccc(S(N)(=O)=O)cc3)ccc2c(-c2ccc3c4c(ccnc24)CCO3)c1[C@H](OC(C)(C)C)C(=O)O` (atropisomer, axis not shown) [Example 17, (S)-2-tert-Butoxy-2-((R)-5-(2,3-dihydropyrano[4,3,2-de]quinolin-7-yl)-7-methyl-2-(4-sulfamoylbenzyloxy)quinolin-6-yl)acetic acid]: 84 nM; for `Cc1cc2c(ccc(=O)n2CC2CC2)c(-c2ccc3c4c(ccnc24)CCO3)c1[C@H](OC(C)(C)C)C(=O)O` (atropisomer, axis not shown) [Example 1, (S)-2-tert-Butoxy-2-((R)-1-(cyclopropylmethyl)-5-(2,3-dihydropyrano[4,3,2-de]quinolin-7-yl)-7-methyl-2-oxo-1,2-dihydroquinolin-6-yl)acetic acid]: 409 nM; for `Cc1ccc2c(-c3ccc4c5c(ccnc35)CCO4)c([C@H](OC(C)(C)CCc3ccccc3)C(=O)O)c(C)cc2n1` (atropisomer, axis not shown) [Example 38, (2S)-2-((R)-5-(2,3-Dihydropyrano[4,3,2-de]quinolin-7-yl)-2,7-dimethylquinolin-6-yl)-2-(2-methyl-4-phenylbutan-2-yloxy)acetic acid]: 38.1 nM. Same read-out and setting: the same measure for `Cc1cc2c(ccc(=O)n2Cc2cccc(OC(F)(F)F)c2)c(-c2ccc3c4c(ccnc24)CCO3)c1[C@H](OC(C)(C)C)C(=O)O` (atropisomer, axis not shown) [Example 18, (S)-2-tert-Butoxy-2-((R)-5-(2,3-dihydropyrano[4,3,2-de]quinolin-7-yl)-7-methyl-2-oxo-1-(3-(trifluoromethoxy)benzyl)-1,2-dihydroquinolin-6-yl)acetic acid]: 185 nM.

The same assay, now with this note: MT-4 cells infected with HIV-IIIb, 5 days of incubation, CellTiter-Glo readout.
Regarding `CCC(C)(CC)O[C@H](C(=O)O)c1c(C)cc2nc(C)ccc2c1-c1ccc2c3c(ccnc13)CCO2` (atropisomer, axis not shown) [Example 42, (S)-2-((S)-5-(2,3-Dihydropyrano[4,3,2-de]quinolin-7-yl)-2,7-dimethylquinolin-6-yl)-2-(3-methylpentan-3-yloxy)acetic acid], a half-maximal effect (EC50) was put at 5630 nM.
